Target: T1, CRF1 receptor (Homo sapiens, UniProt P34998)
T1 sequence (P34998 24-415): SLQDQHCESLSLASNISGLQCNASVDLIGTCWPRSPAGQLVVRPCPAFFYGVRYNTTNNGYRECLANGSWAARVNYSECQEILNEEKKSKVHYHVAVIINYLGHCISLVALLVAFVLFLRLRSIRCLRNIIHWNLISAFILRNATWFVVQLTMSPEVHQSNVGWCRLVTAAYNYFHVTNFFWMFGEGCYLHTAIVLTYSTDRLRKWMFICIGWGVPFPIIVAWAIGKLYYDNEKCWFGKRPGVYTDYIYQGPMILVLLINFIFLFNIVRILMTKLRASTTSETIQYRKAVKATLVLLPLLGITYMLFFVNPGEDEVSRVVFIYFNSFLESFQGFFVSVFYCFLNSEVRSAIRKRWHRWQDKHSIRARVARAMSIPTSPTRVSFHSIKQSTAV
Experiment: CRF1 receptor antagonist activity: kinetically derived affinity (Ki = k-1/k1), procedures of Fleck et al.
Format: binding
Conditions: kinetically derived affinity calculated from association (k1) and dissociation (k-1) rate constants; read-out: kinetic Ki
Experimental: As reported in Fleck et al. (J. Pharmacology and Experimental Therapeutics, 341(2):518-531, 2012) (hereinafter “Fleck et al.” and incorporated by reference in it's entirely) the activity of a CRF1 receptor antagonists may be expressed as the kinetically derived affinity (Ki) calculated from the association (k1) and dissociation (k−1) rate constants by the following equation: Ki=k−1/k1
Compound 1 was evaluated according to these procedures, and the kinetic Ki was determined to be 1.14.

Ki: 1.14 nM
SMILES: C#CCN(c1nc(-c2cc(C)c(OC)cc2Cl)c(C)s1)C(CC1CC1)c1ccc(CO)c(F)c1 (racemic) [Compound 1, racemic {4-[1-{[4-(2-chloro-4-methoxy-5-methylphenyl)-5-methyl-1,3-thiazol-2-yl](prop-2-yn-1-yl)amino}-2-cyclopropylethyl]-2-fluorophenyl}methanol]
